[invdT] = inverted (3'-3') thymidine

The values that follow come from patent publication US7223733B2, “Modulation of TRIP-Br function and method of treating proliferative disorders” (National University of Singapore, priority 2004, dated 2007).

In one data set the test system is U2OS cells. Description: Cell cycle synchronization of U2OS cells, flow cytometry. Type of data set: cell-based, human. To be noted: 75 ng/ml, 22 h, data not shown. On the procedure: Cell synchronization and cell cycle progression analyses. U2OS cells in 6-well dishes were subjected to nocodazole treatment (75 ng/ml) for 22 h. Thereafter, the nocodazole-arrested cultures were released by washing with 1×PBS and grown in DMEM plus 10% FBS containing either vehicle (0.5% DMSO) or 20 μM decoy peptides. Cells were harvested at 4-h intervals for standard Western blot analyses. For the analysis of Geminin protein profile, mock- or cyclin E/Cdk2-transfected U2OS cells were exposed to nocodazole (75 ng/ml) at 3 h post-transfection for 22 h.
(Flow cytometry measures light scatter and fluorescence of single cells or particles in a stream.)

Data set [1] concerns caspase-3 protease activity. Description: Caspase assay with Ac-DEVD-AFC in U2OS cells. Format: cell-based, human. To be noted: 24 h. On the procedure: Caspase assay. Both adherent and detached cells in 6-well dishes were harvested by centrifugation at 2000 rpm for 15 min at 4° C. The resulting cell pellets were incubated in 50 μl of chilled lysis buffer (Clontech) on ice for 10 min. Cell lysates were incubated in a reaction mix containing 10 mM HEPES, 2.0 mM EDTA, 10 mM KCl, 1.5 mM MgCl2, 1.0 mM PMSF, aprotinine, pepstatin A and leupeptine (20 μM each), 6.0 mM DTT and Ac-DEVD-AFC (4.0 μg/ml). Reactions were allowed to proceed at room temperature. Fluorescence readings were taken at 15 min intervals for 1 h using a spectrofluorometer (excitation wavelength: 400 nm; emission wavelength: 505 nm).
(§1) FIG. 6: Caspase assay. (A) Caspase 3 protease activity in U2OS cells exposed to either Eto (Etoposide) for 24 h or 50 μM decoy peptides for 48 or 72 h, were assayed using the Ac-DEVD-AFC fluorogenic substrate. […] Values represent the average +/− standard deviation of two independent experiments. Control: cells cultured in normal growth medium; Vehicle: cells cultured in the presence of 0.5% DMSO; (B) Western blot analysis of PARP cleavage. U2OS cells were exposed to either Eto (Etoposide) for 24 h or 50 μM decoy peptides for 72 h. Lane 1: Vehicle cells (cultured in the presence of 0.5% DMSO for 24 h); Lane 2: 25 μM Eto; Lane 3: 250 μM Eto; Lane 4: Vehicle (cells cultured in the presence of 0.5% DMSO for 72 h); Lane 5: *SCR; Lane 6: *Br1; Lane 7: *Br2.

The subject of the next data set is PARP cleavage. Description: Western blot analysis of PARP cleavage in U2OS cells. Format: cell-based, human. The following applies: 25 and 250 μM, 24 h. On the procedure:
Denaturing SDS-PAGE and western blotting. Proteins from whole cell lysate and IP complexes were separated using standard denaturing polyacrylamide gel electrophoresis as described previously (Hsu, S. I. H., et al. EMBO J 20, 2273-2285 (2001)).
as §1
(In general: In western blotting, separated proteins are transferred to a membrane and probed.)

The subject of the next data set is hTRIP-Br1 mRNA. The experiment in a line: Semi-quantitative RT-PCR of intact hTRIP-Br1 transcripts in WI-38 cells. Type of data set: cell-based, human. To be noted: WI-38, 0.1 μM, 16 h post-stimulation with 10% FBS. On the procedure: (§2) DNA enzyme transfection. WI-38 cells were rendered quiescent by cultivation in serum-free medium for 72 h before being transfected with DNA enzyme (0.1 μM) using Superfect as reported previously (Santiago, F. S., et al. Nat Med 5, 1264-1269 (1999)) in accordance to manufacturer's recommendations (Qiagen).
(§3) Semi-quantitative RT-PCR. Following various treatments, WI-38 cells in 6-well culture dish were subjected to total RNA extraction using the TRIZOL® Reagent (Life Technologies). Total RNA (4 μg) was reversed transcribed using oligo-dT and M-MLV reverse transcriptase in a total reaction volume of 20 μl. Polymerase Chain Reactions (PCR) were carried out on 3 μl cDNA sample in the presence of […] deoxyribonucleotide triphosphates (dNTPs) and 40 μM of specific primer pairs in a total reaction volume of 50 μl. […] Post-PCR samples were analyzed by agarose gel electrophoresis.
(§4) FIG. 11: (A) hTRIP-Br1 and hTRIP-Br2 expression is serum-inducible. […] At 24 h post-serum re-stimulation, semi-quantitative RT-PCR analysis was performed on total RNA to assess hTRIP-Br1 and hTRIP-Br2 expression. β-actin was included as an internal control. […] Semi-quantitative RT-PCR analysis was performed on total RNA to assess hTRIP-Br1 and hTRIP-Br2 expression. β-actin was included as an internal control. […]

A further data set has as its system hTRIP-Br2 mRNA. The experiment in a line: Semi-quantitative RT-PCR of intact hTRIP-Br2 transcripts in WI-38 cells. Type of data set: cell-based, human. The following applies: WI-38, 0.1 μM, 16 h post-stimulation with 10% FBS. How it is done: as §2, §3, §4
Another data set concerns WI-38 fibroblasts. Description: Trypan blue exclusion manual cell count of serum-stimulated WI-38 cells. Type of data set: cell-based, human. The following applies: WI-38, 0.1 μM, 72 h post-stimulation. How it is done: as §2
Cell proliferation assays. For the BrdU incorporation assays, growth-quiescent WI-38 cells in 96-well dishes were transfected with DNA enzyme and/or 100 ng of pCMV/E2F1, pCMV/DP1, pRSV/Cyclin E, or pCMV/Cdk2 and then exposed to Bromodeoxyuridine (BrdU, 100 μM) in the presence or absence of 10% FBS for 20 h. Bromodeoxyuridine (BrdU) incorporation was monitored with a calorimetric ELISA assay using a cell proliferation kit according to manufacturer's recommendations (Boehringer Mannheim). For manual cell count, growth-quiescent WI-38 cells in 24-well dishes were transfected with DNA enzyme and then exposed to 10% FBS for 72 h. The cells were rinsed with PBS, pH 7.4, and trypsinized, and 10 μl of cell suspension was taken from each sample and mixed with equal volume of trypan blue stain (Sigma, 0.4% w/v in 1×PBS). The number of unstained cells was enumerated manually using a hemocytometer. For colony formation assays, growth-quiescent WI-38 cells in 12-well dishes were transfected with DNA enzyme and then exposed to 10% FBS for 120 h. […]

In data set [2] the test system is WI-38 cells. The experiment in a line: Colony formation assay of WI-38 cells (crystal violet). Type of data set: cell-based, human. The following applies: WI-38, serum-induced, 72 h. On the procedure: as §2
Cell proliferation assays. For the BrdU incorporation assays, growth-quiescent WI-38 cells in 96-well dishes were transfected with DNA enzyme and/or 100 ng of pCMV/E2F1, pCMV/DP1, pRSV/Cyclin E, or pCMV/Cdk2 and then exposed to Bromodeoxyuridine (BrdU, 100 μM) in the presence or absence of 10% FBS for 20 h. Bromodeoxyuridine (BrdU) incorporation was monitored with a calorimetric ELISA assay using a cell proliferation kit according to manufacturer's recommendations (Boehringer Mannheim). For manual cell count, growth-quiescent WI-38 cells in 24-well dishes were transfected with DNA enzyme and then exposed to 10% FBS for 72 h. The cells were rinsed with PBS, pH 7.4, and trypsinized, and 10 μl of cell suspension was taken from each sample and mixed with equal volume of trypan blue stain (Sigma, 0.4% w/v in 1×PBS). The number of unstained cells was enumerated manually using a hemocytometer. […] Cells were stained in situ with crystal violet (0.75% w/v hexamethyl-p-rosaniline chloride [SIGMA], 50% ethanol, 1.75% w/v paraformaldehyde, 0.25% w/v NaCl) for 10 min, and then rinsed thoroughly with deionized water to remove excess stains.
FIG. 12: (A) E-Br1 or E-Br2 inhibits cell proliferation. Sub-confluent WI-38 cells were serum-starved for 72 h. Following DNA enzyme transfection, the cultures were re-stimulated with serum and allowed to proliferate. After 72 h, cells were harvested for viable cell count analysis. 10 μl of cell suspension from each sample was mixed with equal volume of 0.4% trypan blue stain. The number of unstained cells was enumerated manually using a hemocytometer. Data represent the average of at least two independent experiments. […] (B) E-Br1 or E-Br2 suppresses colony formation. Sub-confluent WI-38 cells were serum-starved for 72 h. […]

For data set [3], the system named is WI-38 cells. Description: BrdU incorporation, serum-induced S phase entry of WI-38 cells. To be noted: WI-38, 0.1 μM, 20 h; compared to unstimulated cells. Type of data set: cell-based, human. On the procedure:
as §2
Cell proliferation assays. For the BrdU incorporation assays, growth-quiescent WI-38 cells in 96-well dishes were transfected with DNA enzyme and/or 100 ng of pCMV/E2F1, pCMV/DP1, pRSV/Cyclin E, or pCMV/Cdk2 and then exposed to Bromodeoxyuridine (BrdU, 100 μM) in the presence or absence of 10% FBS for 20 h. Bromodeoxyuridine (BrdU) incorporation was monitored with a calorimetric ELISA assay using a cell proliferation kit according to manufacturer's recommendations (Boehringer Mannheim). For manual cell count, growth-quiescent WI-38 cells in 24-well dishes were transfected with DNA enzyme and then exposed to 10% FBS for 72 h. The cells were rinsed with PBS, pH 7.4, and trypsinized, and 10 μl of cell suspension was taken from each sample and mixed with equal volume of trypan blue stain (Sigma, 0.4% w/v in 1×PBS). The number of unstained cells was enumerated manually using a hemocytometer. For colony formation assays, growth-quiescent WI-38 cells in 12-well dishes were transfected with DNA enzyme and then exposed to 10% FBS for 120 h. Cells were stained in situ with crystal violet (0.75% w/v hexamethyl-p-rosaniline chloride [SIGMA], 50% ethanol, 1.75% w/v paraformaldehyde, 0.25% w/v NaCl) for 10 min, and then rinsed thoroughly with deionized water to remove excess stains.
FIG. 13: (A) E-Br1 or E-Br2 suppresses serum-inducible S phase entry. Sub-confluent WI-38 cells were serum-starved for 72 h. Following DNA enzyme transfection, the cultures were re-stimulated with serum and allowed to proliferate in BrdU labeling medium. After 20 h, cells were assayed for BrdU incorporation with a colorimetric ELISA assay. Values represent the average of at least two independent experiments. […] Sub-confluent WI-38 cells were serum-starved for 72 h. […]
On the technique in general: Dividing cells build labelled thymidine or BrdU into new DNA.

Another data set deals with FLAG-TRIP-Br1. Description: Western blot with TB1-27#2 and peptide competition. Type of data set: binding, human. The following applies: lysates of transfected U2OS cells. How it is done:
For Western blot analysis, U2OS cells transfected with the pcDNA3 vector, pcDNA3 vector with TRIP-Br1 insert or TRIP-Br2 insert were harvested. The lysates were separated in a 10% acrylamide gel and blotted onto a transfer membrane. The blot was cut and probed with a mouse monoclonal anti-FLAG antibody or TB1-27#2. For 2 sections, TB1-27 and Cyr61 peptides were added in addition to TB1-27#2 as a source of competition.

A further data set has as its system FLAG-TRIP-Br1 protein. The experiment in a line: Immunoprecipitation assay with TB1-27#2 and peptide competition. Type of data set: binding, human. To be noted: lysates of transfected U2OS cells. How it is done: In an immunoprecipitation assay, fifty microliters of Protein A-agarose (Amersham) were incubated with 2 ml of TB1-27#2 spent media overnight. Each aliquot of agarose was washed and added to the lysates of variously transfected U2OS cells. The TB1-27 and Cyr61 peptides were separately added into 2 of the reactions while one of the reactions was probed with mouse monoclonal anti-His antibodies instead of […]. The agarose was harvested and washed the next day, and the bound proteins analyzed by SDS-PAGE. The gel was blotted and detected with anti-FLAG antibodies. The results are shown in FIG. 23 (the left panel contains 1/10th of the input of the pre-cleared U2OS cell lysate while the right panel contains the proteins eluted from the Protein A-agarose). […] Anti-DP-1 was used as a positive control for immunoprecipitation since it is known that TRIP-Br1 interacts directly with DP-1.

Consider `COC(=O)Nc1nc2ccc(C(=O)c3cccs3)cc2[nH]1` [nocodazole], for which the “cells arrested at the G2/M boundary with 4N DNA content” value in the data set with U2OS cells is on record as “more than 90%”.

Take `COc1cc([C@@H]2c3cc4c(cc3[C@@H](O[C@@H]3O[C@@H]5CO[C@@H](C)O[C@H]5[C@H](O)[C@H]3O)[C@H]3COC(=O)[C@H]23)OCO4)cc(OC)c1O` [Etoposide, etoposide, reference compound]: the caspase-3 activity result in data set [1] is listed as “dose-dependent stimulation of caspase-3 activity several orders of magnitude above baseline”. Further, the PARP cleavage entry in the data set with PARP cleavage is reported as “resulted in PARP cleavage in a dose-dependent manner”.

As for “5′-C AGCTACTGTGGCTAGCTACAACGACCTGTCAT-3′ (DNA CAGCTACTGTGGCTAGCTACAACGACCTGTCAT; DNA, 3' [invdT], backbone not given here) [E-SCR, reference compound]”, the “serum-inducible steady-state hTRIP-Br1 mRNA level” value in the data set on hTRIP-Br1 mRNA is “no effect”. The “serum-inducible steady-state hTRIP-Br2 mRNA level” value with hTRIP-Br2 mRNA was “no effect”. For the same compound, the “effects on WI-38 growth as compared to vehicle-treated cells” value in the data set on WI-38 fibroblasts was “no significant effects”. Also, the colony forming potential result with WI-38 cells [2] was “colony forming potential similar to the normal and the vehicle-treated controls”. In addition, the “BrdU incorporation on serum stimulation” value in the data set on WI-38 cells [3] is listed as “approximately twice as much BrdU”.

As to “DPGHTAAVAQAPPAVAS (Immunogenic peptide from human TRIP-Br1; listed as Homo sapiens) [TB1-27]”, the “blocking of TB1-27#2 binding in Western blot” value with FLAG-TRIP-Br1 is listed as “able to block the binding”. For the same compound, in the data set on FLAG-TRIP-Br1 protein, the “effect of competing peptide on TB1-27#2 binding to FLAG-TRIP-Br1 in immunoprecipitation” value is “abolished the binding”.
